± gives the standard deviation of the averaged measurements.
Experiment: TIMS collisional cross section (CCS, N2) of the lipid ion; higher = larger ion cross section
Conditions: sample type: HeLa; ionization mode: positive; one isomer drawn
Experimental: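 Lipid extracts of human plasma (NIST SRM 1950), mouse liver and HeLa cells were separated by nanoflow C18 LC (30 min gradient, 60 °C) and analysed by TIMS-PASEF on a timsTOF Pro in positive ion mode. Ion mobility was calibrated with the Agilent tuning mix and converted to collisional cross sections (Mason–Schamp) in N2 drift gas. Lipids were identified by MS/MS (SimLipid) and manual curation. SMILES are LIPID MAPS representative structures for the annotated lipid.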

Row | Structure (SMILES) | TIMS collisional cross section [Å²]
1 | CCCCCCCC/C=C\CCCCCCCC(=O)O[C@@H](CO)COC(=O)CCCCCCCCCCCCCCCC [DG 17:0_18:1_0:0] (ion (formula + adduct): [C38H72O5+NH4] 1+) | 265.7
2 | CCCCC/C=C\C/C=C\C/C=C\C/C=C\CCCC(=O)O[C@@H](CO)COC(=O)CCCCCCCCCCCCCCCCC [DG 18:0_20:4_0:0] (ion (formula + adduct): [C41H72O5+NH4] 1+) | 270.8
3 | CCCCCC/C=C/CCCCCCCCCC(=O)OC[C@H](CO)OC(=O)CCCCCCCCCCCCCCC [DG 18:1_16:0_0:0] (ion (formula + adduct): [C37H70O5+H] 1+) | 257.7
4 | CCCCCC/C=C/CCCCCCCCCC(=O)OC[C@H](CO)OC(=O)CCCCCCCCCCCCCCC [DG 18:1_16:0_0:0] (ion (formula + adduct): [C37H70O5+NH4] 1+) | 262.87 ± 0.64
5 | CCCCCCCC/C=C\CCCCCCCC(=O)OC[C@H](CO)OC(=O)CCCCCCC/C=C\CCCCCCCC [DG 18:1_18:1_0:0] (ion (formula + adduct): [C39H72O5+NH4] 1+) | 265.2
6 | CCCCC/C=C\C/C=C\CCCCCCCC(=O)O[C@@H](CO)COC(=O)CCCCCCC/C=C\CCCCCCCC [DG 18:1_18:2_0:0] (ion (formula + adduct): [C39H70O5+NH4] 1+) | 261.1
7 | CC/C=C\C/C=C\C/C=C\CCCCCCCC(=O)O[C@@H](CO)COC(=O)CCCCCCC/C=C\CCCCCCCC [DG 18:1_18:3_0:0] (ion (formula + adduct): [C39H68O5+NH4] 1+) | 258.6
8 | CCCCC/C=C\C/C=C\C/C=C\CCCCCCC(=O)O[C@@H](CO)COC(=O)CCCCCCC/C=C\CCCCCCCC [DG 18:1_20:3_0:0] (ion (formula + adduct): [C41H72O5+NH4] 1+) | 266.8
9 | CC/C=C\C/C=C\C/C=C\C/C=C\C/C=C\C/C=C\CCC(=O)O[C@@H](CO)COC(=O)CCCCCCC/C=C\CCCCCCCC [DG 18:1_22:6_0:0] (ion (formula + adduct): [C43H70O5+NH4] 1+) | 270

Now from value to compound:

Row | TIMS collisional cross section [Å²] | Structure (SMILES)
10 | 272.2 | CCCCCCCCCCCCCCCCCC(=O)OCC(CO)OC(=O)CCCCCCCCCCCCCCCCC (centres undefined) [DG 18:0_18:0_0:0] (ion (formula + adduct): [C39H76O5+NH4] 1+)
11 | 263.8 | CC/C=C\C/C=C\C/C=C\C/C=C\C/C=C\CCCC(=O)O[C@@H](CO)COC(=O)CCCCCCC/C=C\CCCCCCCC [DG 18:1_20:5_0:0] (ion (formula + adduct): [C41H68O5+NH4] 1+)

Same assay, conditions: sample type: Liver; ionization mode: positive; one isomer drawn

Row | Structure (SMILES) | TIMS collisional cross section [Å²]
12 | CCCCCC/C=C\CCCCCCCC(=O)OC[C@H](CO)OC(=O)CCCCCCC/C=C\CCCCCCCC [DG 16:1_18:1_0:0] (ion (formula + adduct): [C37H68O5+NH4] 1+) | 260
13 | CCCCC/C=C\C/C=C\CCCCCCCC(=O)O[C@@H](CO)COC(=O)CCCCCCC/C=C\CCCCCC [DG 16:1_18:2_0:0] (ion (formula + adduct): [C37H66O5+NH4] 1+) | 253.1
14 | CCCCCCCC/C=C\CCCCCCCC(=O)O[C@@H](CO)COC(=O)CCCCCCCCCCCCCCCC [DG 17:0_18:1_0:0] (ion (formula + adduct): [C38H72O5+NH4] 1+) | 266
15 | CCCCC/C=C\C/C=C\C/C=C\CCCCCCC(=O)O[C@@H](CO)COC(=O)CCCCCCCCCCCCCCCCC [DG 18:0_20:3_0:0] (ion (formula + adduct): [C41H74O5+NH4] 1+) | 271.8
16 | CCCCC/C=C\C/C=C\C/C=C\C/C=C\CCCC(=O)O[C@@H](CO)COC(=O)CCCCCCCCCCCCCCCCC [DG 18:0_20:4_0:0] (ion (formula + adduct): [C41H72O5+NH4] 1+) | 270.8
17 | CCCCCC/C=C/CCCCCCCCCC(=O)OC[C@H](CO)OC(=O)CCCCCCCCCCCCCCC [DG 18:1_16:0_0:0] (ion (formula + adduct): [C37H70O5+NH4] 1+) | 262.85 ± 0.21
18 | CCCCCCCC/C=C\CCCCCCCC(=O)OC[C@H](CO)OC(=O)CCCCCCC/C=C\CCCCCCCC [DG 18:1_18:1_0:0] (ion (formula + adduct): [C39H72O5+NH4] 1+) | 265.5
19 | CCCCC/C=C\C/C=C\CCCCCCCC(=O)O[C@@H](CO)COC(=O)CCCCCCC/C=C\CCCCCCCC [DG 18:1_18:2_0:0] (ion (formula + adduct): [C39H70O5+NH4] 1+) | 261.3
20 | CCCCCCCC/C=C\CCCCCCCCCC(=O)O[C@@H](CO)COC(=O)CCCCCCC/C=C\CCCCCCCC [DG 18:1_20:1_0:0] (ion (formula + adduct): [C41H76O5+NH4] 1+) | 271.8
21 | CCCCC/C=C\C/C=C\C/C=C\CCCCCCC(=O)O[C@@H](CO)COC(=O)CCCCCCC/C=C\CCCCCCCC [DG 18:1_20:3_0:0] (ion (formula + adduct): [C41H72O5+NH4] 1+) | 267
22 | CCCCC/C=C\C/C=C\C/C=C\C/C=C\CCCC(=O)O[C@@H](CO)COC(=O)CCCCCCC/C=C\CCCCCCCC [DG 18:1_20:4_0:0] (ion (formula + adduct): [C41H70O5+NH4] 1+) | 266
23 | CCCCCCCC/C=C\CCCCCCCCCCCC(=O)O[C@@H](CO)COC(=O)CCCCCCC/C=C\CCCCCCCC [DG 18:1_22:1_0:0] (ion (formula + adduct): [C43H80O5+NH4] 1+) | 278.5
24 | CC/C=C\C/C=C\C/C=C\C/C=C\C/C=C\C/C=C\CCC(=O)O[C@@H](CO)COC(=O)CCCCCCC/C=C\CCCCCCCC [DG 18:1_22:6_0:0] (ion (formula + adduct): [C43H70O5+NH4] 1+) | 269.9

Second part, the compound after the results:

Row | TIMS collisional cross section [Å²] | Structure (SMILES)
25 | 262.8 | CCCCC/C=C\C/C=C\CCCCCCCC(=O)O[C@@H](CO)COC(=O)CCCCCCCCCCCCCCCC [DG 17:0_18:2_0:0] (ion (formula + adduct): [C38H70O5+NH4] 1+)
26 | 265.6 | CCCCCCCCCCCCCCCCCC(=O)OC[C@H](CO)OC(=O)CCCCCCCCCCCCCCC [DG 18:0_16:0_0:0] (ion (formula + adduct): [C37H72O5+NH4] 1+)
27 | 269.6 | CCCCCCCC/C=C\CCCCCCCC(=O)O[C@@H](CO)COC(=O)CCCCCCCCCCCCCCCCC [DG 18:0_18:1_0:0] (ion (formula + adduct): [C39H74O5+NH4] 1+)
28 | 272.3 | CC/C=C\C/C=C\C/C=C\C/C=C\C/C=C\CCCCCC(=O)O[C@@H](CO)COC(=O)CCCCCCC/C=C\CCCCCCCC [DG 18:1_22:5_0:0] (ion (formula + adduct): [C43H72O5+NH4] 1+)
29 | 256.6 | CCCCC/C=C\C/C=C\CCCCCCCC(=O)OC[C@H](CO)OC(=O)CCCCCCC/C=C\C/C=C\CCCCC [DG 18:2_18:2_0:0] (ion (formula + adduct): [C39H68O5+NH4] 1+)
30 | 254.2 | CC/C=C\C/C=C\C/C=C\CCCCCCCC(=O)O[C@@H](CO)COC(=O)CCCCCCC/C=C\C/C=C\CCCCC [DG 18:2_18:3_0:0] (ion (formula + adduct): [C39H66O5+NH4] 1+)

Same assay, conditions: sample type: plasma; ionization mode: positive; one isomer drawn

Row | Structure (SMILES) | TIMS collisional cross section [Å²]
31 | CCCCCC/C=C\CCCCCCCC(=O)OC[C@H](CO)OC(=O)CCCCCCC/C=C\CCCCCCCC [DG 16:1_18:1_0:0] (ion (formula + adduct): [C37H68O5+NH4] 1+) | 258.75 ± 1.2
32 | CCCCC/C=C\C/C=C\CCCCCCCC(=O)O[C@@H](CO)COC(=O)CCCCCCC/C=C\CCCCCC [DG 16:1_18:2_0:0] (ion (formula + adduct): [C37H66O5+NH4] 1+) | 253.8
33 | CCCCCCCCCCCCCCCCCCCCCC(=O)O[C@@H](CO)COC(=O)CCCCCCCCCCCCCCCCC [DG 18:0_22:0_0:0] (ion (formula + adduct): [C43H84O5+NH4] 1+) | 285.7
34 | CCCCCC/C=C/CCCCCCCCCC(=O)OC[C@H](CO)OC(=O)CCCCCCCCCCCCCCC [DG 18:1_16:0_0:0] (ion (formula + adduct): [C37H70O5+NH4] 1+) | 263.1
35 | CCCCCCCC/C=C\CCCCCCCC(=O)OC[C@H](CO)OC(=O)CCCCCCC/C=C\CCCCCCCC [DG 18:1_18:1_0:0] (ion (formula + adduct): [C39H72O5+NH4] 1+) | 265.9 ± 0.71
36 | CCCCC/C=C\C/C=C\CCCCCCCC(=O)O[C@@H](CO)COC(=O)CCCCCCC/C=C\CCCCCCCC [DG 18:1_18:2_0:0] (ion (formula + adduct): [C39H70O5+NH4] 1+) | 261.2
37 | CC/C=C\C/C=C\C/C=C\CCCCCCCC(=O)O[C@@H](CO)COC(=O)CCCCCCC/C=C\CCCCCCCC [DG 18:1_18:3_0:0] (ion (formula + adduct): [C39H68O5+NH4] 1+) | 258.8
38 | CCCCC/C=C\C/C=C\CCCCCCCCCC(=O)O[C@@H](CO)COC(=O)CCCCCCC/C=C\CCCCCCCC [DG 18:1_20:2_0:0] (ion (formula + adduct): [C41H74O5+NH4] 1+) | 268.2
39 | CCCCC/C=C\C/C=C\C/C=C\C/C=C\CCCC(=O)O[C@@H](CO)COC(=O)CCCCCCC/C=C\CCCCCCCC [DG 18:1_20:4_0:0] (ion (formula + adduct): [C41H70O5+NH4] 1+) | 265.8
40 | CCCCC/C=C\C/C=C\C/C=C\C/C=C\CCCCCC(=O)O[C@@H](CO)COC(=O)CCCCCCC/C=C\CCCCCCCC [DG 18:1_22:4_0:0] (ion (formula + adduct): [C43H74O5+NH4] 1+) | 273

Further lines, results first:

Row | TIMS collisional cross section [Å²] | Structure (SMILES)
41 | 265.6 | CCCCCCCCCCCCCCCCCC(=O)OC[C@H](CO)OC(=O)CCCCCCCCCCCCCCC [DG 18:0_16:0_0:0] (ion (formula + adduct): [C37H72O5+NH4] 1+)
42 | 273.4 | CCCCCCCCCCCCCCCCCC(=O)OCC(CO)OC(=O)CCCCCCCCCCCCCCCCC (centres undefined) [DG 18:0_18:0_0:0] (ion (formula + adduct): [C39H76O5+NH4] 1+)
43 | 271.1 | CC/C=C\C/C=C\C/C=C\C/C=C\C/C=C\CCCC(=O)O[C@@H](CO)COC(=O)CCCCCCC/C=C\CCCCCCCC [DG 18:1_20:5_0:0] (ion (formula + adduct): [C41H68O5+H] 1+)
44 | 257.1 | CCCCC/C=C\C/C=C\CCCCCCCC(=O)OC[C@H](CO)OC(=O)CCCCCCC/C=C\C/C=C\CCCCC [DG 18:2_18:2_0:0] (ion (formula + adduct): [C39H68O5+NH4] 1+)
